In the CheMixHub viscosity set:

Assay: xn = mol fraction of the nth substance listed

CCCCC(=O)OCC + CCCCCO
viscosity [mPa·s], 101.33 kPa
Details	x1 = 0.1037	x1 = 0.1921	x1 = 0.3001	x1 = 0.4089	x1 = 0.5015	x1 = 0.6062	x1 = 0.7081	x1 = 0.8013	x1 = 0.9029
293.15 K	3.302	2.761	2.241	1.841	1.575	1.34	1.163	1.036	0.927
303.15 K	2.379	2.008	1.651	1.377	1.195	1.033	0.912	0.825	0.749
313.15 K	1.887	1.61	1.344	1.139	1.004	0.884	0.793	0.728	0.672

CC(C)=CC(=O)C=C(C)C + CCCCCOC(C)=O
298.15 K, 101 kPa
Details	viscosity [mPa·s]
x1 = 0.078	0.813
x1 = 0.142	0.834

CCCCC + CCCCCl
298 K, 101.3 kPa
Details	viscosity [mPa·s]
x1 = 0.1016	0.4004
x1 = 0.2097	0.372
x1 = 0.2358	0.3641
x1 = 0.403	0.3274
x1 = 0.5062	0.3054
x1 = 0.6042	0.287
x1 = 0.7007	0.2701
x1 = 0.7975	0.2558
x1 = 0.8963	0.2391

CC(=O)O.NCCO + CCCCO
298.15 K, 101.3 kPa
Details	viscosity [mPa·s]
x2 = 0.088	1548
x2 = 0.179	734.1
x2 = 0.272	460.3
x2 = 0.369	325.3
x2 = 0.476	190.3
x2 = 0.574	74.63
x2 = 0.666	30.51
x2 = 0.776	19.04
x2 = 0.881	14.02

CCCCC + CCCCO
298.15 K, 101 kPa
Details	viscosity [mPa·s]
x2 = 0.1233	0.258
x2 = 0.2435	0.319
x2 = 0.4175	0.481
x2 = 0.4935	0.609
x2 = 0.5883	0.809
x2 = 0.6892	1.042
x2 = 0.7941	1.44
x2 = 0.869	1.832

CCCCCCCCn1cc[n+](C)c1.O=[N+]([O-])[O-] + CCCCO
Details	viscosity [mPa·s]
293.15 K, 101 kPa, x2 = 0.168	378.7

CCCCCCCO + CCCCO
viscosity [mPa·s], 101 kPa
Details	298.15 K	308.15 K	318.15 K
x2 = 0.08	5.586	4.11	3.063
x2 = 0.15	5.398	3.965	2.971
x2 = 0.22	5.211	3.829	2.883
x2 = 0.28	5.027	3.7	2.798
x2 = 0.34	4.844	3.576	2.714
x2 = 0.4	4.664	3.456	2.632
x2 = 0.46	4.487	3.34	2.551
x2 = 0.51	4.313	3.226	2.47
x2 = 0.56	4.142	3.115	2.391
x2 = 0.61	3.976	3.004	2.312
x2 = 0.66	3.813	2.894	2.233
x2 = 0.7	3.654	2.785	2.155
x2 = 0.74	3.499	2.677	2.077
x2 = 0.79	3.348	2.57	2
x2 = 0.82	3.201	2.463	1.923
x2 = 0.86	3.058	2.359	1.847
x2 = 0.9	2.919	2.256	1.772
x2 = 0.93	2.783	2.157	1.698
x2 = 0.97	2.652	2.061	1.627

CCN(CC)S(C)(=O)=O + CCCCO
303.15 K, 101.33 kPa
Details	viscosity [mPa·s]
x1 = 0.0631	20450
x1 = 0.1404	19420
x1 = 0.2197	19180
x1 = 0.2937	19420
x1 = 0.3626	19850
x1 = 0.4515	20780
x1 = 0.5227	21750
x1 = 0.6053	23400
x1 = 0.6908	25500
x1 = 0.7579	27420
x1 = 0.8437	30890
x1 = 0.9281	35520

CS(C)=O + CCCCO
viscosity [mPa·s]
Details	298.15 K	303.15 K
101 kPa, x1 = 0.09862	–	1.847
101 kPa, x1 = 0.1941	–	1.698
101 kPa, x1 = 0.2035	–	1.685
101 kPa, x1 = 0.3043	–	1.581
101 kPa, x1 = 0.3691	–	1.528
101 kPa, x1 = 0.3883	–	1.55
101 kPa, x1 = 0.4941	–	1.534
101 kPa, x1 = 0.5276	–	1.497
101 kPa, x1 = 0.5875	–	1.564
101 kPa, x1 = 0.6718	–	1.506
101 kPa, x1 = 0.6844	–	1.605
101 kPa, x1 = 0.803	–	1.636
101 kPa, x1 = 0.8037	–	1.543
101 kPa, x1 = 0.9005	–	1.682
101 kPa, x1 = 0.9297	–	1.672
101.3 kPa, x1 = 0.0944	2.225	1.97
101.3 kPa, x1 = 0.192	2.017	1.848
101.3 kPa, x1 = 0.2893	1.88	1.671
101.3 kPa, x1 = 0.3876	1.78	1.604
101.3 kPa, x1 = 0.4688	1.773	1.59
101.3 kPa, x1 = 0.5874	1.77	1.599
101.3 kPa, x1 = 0.6887	1.796	1.625
101.3 kPa, x1 = 0.7915	1.859	1.668
101.3 kPa, x1 = 0.8839	1.905	1.723

O=C(O)C=Cc1ccccc1 + CCCCO
viscosity [mPa·s]
Details	x1 = 0.0728	x1 = 0.0959	x1 = 0.114
308.15 K, 101.33 kPa	2.48	–	–
313.15 K, 101.33 kPa	2.19	–	–
318.15 K, 101 kPa	1.932	2.073	2.18
318.15 K, 101.33 kPa	1.932	2.073	–
323.15 K, 101.33 kPa	1.712	1.838	–

CCCCCCCCn1cc[n+](C)c1.O=[N+]([O-])[O-] + CCCO
101 kPa
Details	viscosity [mPa·s]
293.15 K, x2 = 0.107	510.9
298.15 K, x2 = 0.258	191.5

CCCCCCCO + CCCO
viscosity [mPa·s], 101 kPa
Details	298.15 K	308.15 K	318.15 K
x2 = 0.05	5.555	4.09	3.044
x2 = 0.1	5.333	3.923	2.935
x2 = 0.15	5.11	3.762	2.83
x2 = 0.2	4.888	3.607	2.728
x2 = 0.25	4.667	3.456	2.627
x2 = 0.3	4.449	3.309	2.528
x2 = 0.35	4.235	3.166	2.429
x2 = 0.4	4.026	3.027	2.331
x2 = 0.45	3.822	2.89	2.234
x2 = 0.5	3.623	2.756	2.136
x2 = 0.55	3.431	2.624	2.039
x2 = 0.6	3.243	2.494	1.942
x2 = 0.65	3.061	2.364	1.845
x2 = 0.7	2.882	2.236	1.748
x2 = 0.75	2.707	2.107	1.654
x2 = 0.8	2.534	1.979	1.56
x2 = 0.85	2.362	1.849	1.47
x2 = 0.9	2.189	1.719	1.382
x2 = 0.95	2.013	1.587	1.299
